What all share (assay type): cell-based
For assay [1], the system named is Mouse Leyden TM3 cells. In words: Testosterone production assay in TM3 cells, normal conditions (testosterone ELISA). On the procedure: (§1) Testosterone production assay: Mouse Leyden TM3 cells (ATCC) were cultured at 37° C., 5% CO2, in growth medium: 1:1 mixture of Ham's F12 medium and Dulbecco's modified Eagle's medium with 2.5 mM L-Glutamine, 0.5 mM Sodium Pyruvate, 1.2 g/L Sodium Bicarbonate and 15 mM HEPES, 92.5%; horse serum, 5%; fetal bovine serum, 2.5%. TM3 cells were seeded in 96-well plates covered with fibronectin or collagen (COSTAR) in […] growth medium. After reaching confluency cells were supplied with tested components in 100 mcl growth medium for 48 hour incubation. In some tests we also used additions of TNF alpha at 1 ng/ml and 10 ng/ml as indicated in appropriate figure legends. Testosterone content in 50 mcl conditioned cell culture medium samples was assayed with testosterone ELISA assay (DRG #EIA-1559) as described in the manufacturer's protocol.
The concentration of ingredients were Rosemary extract 20 mcg/ml, Fenugreek-20 mcg/ml, Cassia nomane—20 mcg/ml, 3′3-di indolylmethylene—5 mcg/ml, Zinc—2 mcg/ml, Phosphatidylserine—20 mcg/ml, Vitamin D—5 mcg/ml, Niacin—20 mcg/ml, Theanine—2 mcg/ml, Aspartic acid—2 mcg/ml, Arginine—2 mcg/ml and DHEA—2 mcg/ml.
For orientation: In an ELISA, binding on a coated surface is turned into a signal by an enzyme label.

The test system of assay [2] is Mouse Leyden TM3 cells. In words: Testosterone production assay in TM3 cells under pro-inflammatory conditions (TNF alpha). As to conditions: 10 ng/ml TNFa; for effect on testosterone secretion (in words): 48 h, in the presence and absence of DHEA (FIG. 3). As to the method: as §1
It is known that chronic inflammation, such as in the presence of TNF alpha, can suppress testosterone production, which has physiological implications as it is related to an increased risk of infertility. Incubation was for 48 h with 10 ng/ml TNFa (all samples) and 1 mcg/ml DHEA or w/o DHEA. Data are presented as % of no additions Control. We evaluated the effects of micronutrients on testosterone production in Leydig cells exposed to a proinflammatory factor—TNF alpha.

Assay [3] relates to IL6 release by Human Aortic Endothelial Cells (HAEC). In words: IL6 secretion by human aortic endothelial cells (HAEC) in the presence of LPS (ELISA). To be noted: 24 h, 20 ng/ml LPS, with 200 mcM Ascorbate or w/o Ascorbate (FIG. 13). On the procedure: Cytokine assay in Human Aortic endothelial cells (AoEC): Human Aortic endothelial cells (AoEC, Lonza) were cultured in EBG-2 cell culture medium (Lonza) and used in experiments at 5-8 passages. AoEC were seeded in 96-well plates covered with fibronectin or collagen (COSTAR) in 100 mcl/well growth medium. After reaching confluency cells were supplemented with tested components in 100 mcl growth medium for 48 hour incubation. Levels of cytokines were assayed with corresponding ELISA assays (R&D Systems).
The test was carried out by incubating HAEC cells for 24 h in the presence of 20 ng/ml LPS (all samples) and 200 mcM Ascorbate or w/o Ascorbate.

The subject of assay [4] is Human aortic smooth muscle cells (AoSMC). In words: Collagen gel contraction by AoSMC. As to conditions: individual components (FIG. 6). As to the method:
Collagen gel contraction by AoSMC: Gel Contraction Assay: Human aortic smooth muscle cells (AoSMS) were obtained from Lonza Corporation and cultured in DMEM cell culture medium (ATCC) supplemented with 5% fetal bovine serum (ATCC). For experiments cells were suspended in DMEM medium at 500,000 per mL by trypsinization and mixed with equal volume of 2 mg/ml bovine skin collagen (Sigma) solution in DMEM. Resulting cell suspension was distributed at 300 mcl per well of plastic 24 well plate pretreated with 10 mg/ml bovine serum albumin in phosphate buffered saline. Collagen gels, formed in the wells after one hour incubation at 37° C., were supplemented with 500 mcl DMEM containing indicated amounts of tested compounds. After 24 hours incubation at 37° C. pictures of the wells were taken with digital photo camera and gel surface area was measured in pixels using ImageJ scientific software. Gel contraction was expressed as percentage of unsupplemented control using the following formula: (No Cell Control Gel Area−Tested Sample Gel Area)/(No Cell Control Gel Area−Not Supplemented Control Gel Area)*100%. All experiments were done in triplicates and results are expressed as mean values+/−SD.

For the molecule `C[C@]12CC[C@H](O)CC1=CC[C@@H]1[C@@H]2CC[C@]2(C)C(=O)CC[C@@H]12` [DHEA, Dehydroepiandrosterone], the “increase of testosterone secretion compared to control” value in assay [1] (11 mcg/ml (FIG. 2)) came to 1402%; in assay [1] (33 mcg/ml (FIG. 2)), 2361%; in assay [1] (applied individually, DHEA 2 mcg/ml (FIG. 1)), 161%. Besides, the “testosterone secretion, % of Control” value in assay [1] (11 mcg/ml (FIG. 2)) is reported as 1402 % of Control. Also, in assay [2] (1 mcg/ml DHEA, 48 h (FIG. 3)), the “decrease of testosterone secretion compared to normal Control” value was “about 48%”.

On to `C=C1CC[C@H](O)C/C1=C/C=C1\CCC[C@]2(C)[C@@H]([C@H](C)CCCC(C)C)CC[C@@H]12` [Vitamin D, Cholecalciferol], for which the “testosterone secretion, % of Control” value in assay [1] (11 mcg/ml (FIG. 2)) is 115 % of Control. Besides, the “effect of individual compounds on IL-6 secretion (in words)” value in assay [3] is given as “significant inhibitory effect”.

Consider `Oc1ccc(C=Cc2cc(O)cc(O)c2)cc1` [resveratrol], for which the “effect on testosterone secretion (in words)” value in assay [2] is “decreasing”.

In the case of `CC(=O)[O-].CC(=O)[O-].[Zn+2]` [zinc, Zinc Acetate Dihydrate], in assay [2], the “effect on testosterone secretion (in words)” value was “decreasing”. Further, the “SMC relaxation by individual compounds” value in assay [4] amounted to 69%.

Regarding Phosphatidylserine, the “effect of individual compounds on IL-6 secretion (in words)” value in assay [3] was “significant inhibitory effect”.

Values taken from patent US11986507B1, “Micronutrient composition to improve men's health” (priority 2023, dated 2024).
